Reference: patent publication US7342027B2 (Yuhan Corporation, priority 2002, dated 2008)
Where a name gives a salt, the structure may show the parent alone.

Molecular target: T1, Recombinant human cathepsin K (Homo sapiens, UniProt P43235)
T1 construct: made in house
T1 sequence (P43235 115-329): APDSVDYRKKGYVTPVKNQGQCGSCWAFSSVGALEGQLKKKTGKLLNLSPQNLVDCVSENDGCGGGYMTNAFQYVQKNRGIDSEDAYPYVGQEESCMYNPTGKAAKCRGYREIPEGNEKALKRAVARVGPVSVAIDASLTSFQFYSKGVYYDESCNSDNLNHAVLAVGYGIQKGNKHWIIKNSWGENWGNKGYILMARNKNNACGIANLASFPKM
Assay: Inhibition of cathepsin K activity (Z-Phe-Arg-AMC fluorescence assay)
Assay type: biochemical
Settings: 25 uM Z-Phe-Arg-AMC, pH 5.5, 1 hour at 37° C.
Description: Test 1: Inhibition of Cathepsin K Activity
Recombinant human cathepsin K was prepared in accordance with Biol, Pharm. Bull, 19(8), 1026-1031 (1996) and J. Biol. Chem. 271, 2126-2132 (1996). Stock solutions of 2.5 mM Z-Phe-Arg-AMC (BACHEM, 1-1160) and all inhibitors were prepared in dimethyl sulfoxide. In vitro assays for cathepsin K were conducted with 25 uM Z-Phe-Arg-AMC as a substrate at pH 5.5 in 100 mM Na acetate buffer containing 20 mM cysteine and 5 mM EDTA in the presence of 2% final concentration of DMSO. Reaction was initiated by the addition of enzyme to samples, which were then incubated for 1 hour at 37° C. The fluorescence was monitored at 460 nm (excitation wavelength 360 nm) using fluorescence plate reader.
The concentrations of the test compounds, which inhibit 50% of cathepsin K activity, are represented as IC50 in Table 1.

| SMILES | IC50 |
| --- | --- |
| CC(C)(C)OC(=O)c1ccccc1N1CCC(NC(=O)C2(NC(=O)c3cc4ccccc4o3)CCCCC2)C(=O)C1 (centres unmarked) [Example 37, 4-[N-[1-[N-(benzofuran-2-ylcarbonyl)amino]cyclohexanecarbonyl]amino]-1-[2-(tert-butoxycarbonyl)phenyl]piperidin-3-one] | 3.78 nM |
| CC(C)(C)OC(=O)c1ccccc1N1CCC(NC(=O)C2(NC(=O)c3cc4ccccc4s3)CCCCC2)C(=O)C1 (centres unmarked) [Example 129, 4-[N-[1-[N-(benzothiophen-2-ylcarbonyl)amino]cyclohexanecarbonyl]amino]-1-(2-tert-butoxycarbonylphenyl)piperidin-3-one] | 0.45 nM |
| CC(C)C(=O)Nc1ccccc1N1CCC(NC(=O)C2(NC(=O)c3cc4ccccc4o3)CCCCC2)C(=O)C1 (centres unmarked) [Example 51, 4-[N-[1-[N-(benzofuran-2-ylcarbonyl)amino]cyclohexanecarbonyl]amino]-1-[2-[N-(isobutyryl)amino]phenyl]piperidin-3-one] | 4.11 nM |
| CC(=O)c1ccccc1N1CCC(NC(=O)C2(NC(=O)c3cc4ccccc4o3)CCCCC2)C(=O)C1 (centres unmarked) [Example 6, 4-[N-[1-[N-(benzofuran-2-ylcarbonyl)amino]cyclohexanecarbonyl]amino]-1-(2-acetylphenyl)piperidin-3-one] | 2.69 nM |
| Cc1c(C(=O)NC2(C(=O)NC3CCN(c4cc(F)ccc4C(F)(F)F)CC3=O)CCCCC2)oc2ccccc12 (centres unmarked) [Example 134, 4-[N-[1-[N-(3-methyl-benzofuran-2-ylcarbonyl)amino]cyclohexanecarbonyl]amino]-1-(5-fluoro-2-trifluoromethylphenyl)piperidin-3-one] | 6.09 nM |
| O=C(NC1(C(=O)NC2CCN(c3ccccc3-n3cnnn3)CC2=O)CCCCC1)c1cc2ccccc2o1 (centres unmarked) [Example 58, 4-[N-[1-[N-(benzofuran-2-ylcarbonyl)amino]cyclohexanecarbonyl]amino]-1-[2-(tetrazol-1-yl)phenyl]piperidin-3-one] | 4.82 nM |
| Cc1ccc(C(=O)NC2(C(=O)NC3CCN(c4ccccc4S(C)(=O)=O)CC3=O)CCCCC2)o1 (centres unmarked) [Example 123, 4-[N-[1-[N-(5-methyl-furan-2-ylcarbonyl)amino]cyclohexanecarbonyl]amino]-1-(2-methanesulfonylphenyl)piperidin-3-one] | 4.97 nM |
| O=C(NC1(C(=O)NC2CCN(c3ccccc3N3CCCCC3=O)CC2=O)CCCCC1)c1cc2ccccc2o1 (centres unmarked) [Example 45, 4-[N-[1-[N-(benzofuran-2-ylcarbonyl)amino]cyclohexanecarbonyl]amino]-1-[2-(piperidin-2-one-1-yl)phenyl]piperidin-3-one] | 6.8 nM |
| CS(=O)(=O)c1ccccc1N1CCC(NC(=O)C2(NC(=O)c3ccc(C(F)(F)F)cc3)CCCCC2)C(=O)C1 (centres unmarked) [Example 154, 4-[N-[1-[N-(4-trifluoromethylbenzoyl)amino]cyclohexanecarbonyl]amino]-1-(2-methanesulfonylphenyl)piperidin-3-one] | 1.37 nM |
| CSc1ccccc1N1CCC(NC(=O)C2(NC(=O)c3cc4ccccc4o3)CCCCC2)C(=O)C1 (centres unmarked) [Example 36, 4-[N-[1-[N-(benzofuran-2-ylcarbonyl)amino]cyclohexanecarbonyl]amino]-1-(2-methylthiophenyl)piperidin-3-one] | 2.13 nM |
| CS(=O)(=O)Nc1cc(F)ccc1N1CCC(NC(=O)C2(NC(=O)c3ccc(OCCN4CCOCC4)cc3)CCCCC2)C(=O)C1 (centres unmarked) [Example 169, 4-[N-[1-[N-(4-(2-morpholinethoxy)benzoyl)amino]cyclohexanecarbonyl]amino]-1-(4-fluoro-2-methanesulfonylaminophenyl)piperidin-3-one] | 0.58 nM |
| CS(=O)(=O)c1ccccc1N1CCC(NC(=O)C2(NC(=O)c3cc(N4CCCC4=O)co3)CCCCC2)C(=O)C1 (centres unmarked) [Example 168, 4-[N-[1-[N-(4-(2-oxopyrrolidine)furan-2-ylcarbonyl)amino]cyclohexanecarbonyl]amino]-1-(2-methanesulfonylphenyl)piperidin-3-one] | 15.8 nM |
| Cc1cc(C(=O)NC2(C(=O)NC3CCN(c4ccccc4S(C)(=O)=O)CC3=O)CCCCC2)oc1C (centres unmarked) [Example 125, 4-[N-[1-[N-(4,5-dimethyl-furan-2-ylcarbonyl)amino]cyclohexanecarbonyl]amino]-1-(2-methanesulfonylphenyl)piperidin-3-one] | 6.8 nM |
| CS(=O)(=O)c1ccccc1N1CCC(NC(=O)C2(NC(=O)c3cc4cc(OCCN5CCCC5)ccc4o3)CCCCC2)C(=O)C1 (centres unmarked) [Example 162, 4-[N-[1-[N-(5-(2-pyrrolidinethoxy)benzofuran-2-ylcarbonyl)amino]cyclohexanecarbonyl]amino]-1-(2-methanesulfonylphenyl)piperidin-3-one] | 0.45 nM |

The next lines start with the values.

| IC50 | SMILES |
| --- | --- |
| 3.15 nM | CS(=O)(=O)c1ccccc1N1CCC(NC(=O)C2(NC(=O)c3ccc(OCCN4CCOCC4)cc3)CCCCC2)C(=O)C1 (centres unmarked) [Example 158, 4-[N-[1-[N-(4-(2-morpholinethoxy)benzoyl)amino]cyclohexanecarbonyl]amino]-1-(2-methanesulfonylphenyl)piperidin-3-one hydrochloride] |
| 4.77 nM | O=C(NC1(C(=O)NC2CCN(c3ccccc3-c3nnn[nH]3)CC2=O)CCCCC1)c1cc2ccccc2o1 (centres unmarked) [Example 67, 4-[N-[1-[N-(benzofuran-2-ylcarbonyl)amino]cyclohexanecarbonyl]amino]-1-[2-(1H-tetrazol-5-yl)phenyl]piperidin-3-one] |
| 1.2 nM | O=C(NC1(C(=O)NC2CCN(c3cc(C(F)(F)F)ccc3Cl)CC2=O)CCCCC1)c1cc2ccccc2s1 (centres unmarked) [Example 130, 4-[N-[1-[N-(benzothiophen-2-ylcarbonyl)amino]cyclohexanecarbonyl]amino]-1-(2-chloro-5-trifluoromethylphenyl)piperidin-3-one] |
| 5.97 nM | CS(=O)(=O)c1c(F)cccc1N1CCC(NC(=O)C2(NC(=O)c3ccco3)CCCCC2)C(=O)C1 (centres unmarked) [Example 77, 4-[N-[1-[N-(furan-2-ylcarbonyl)amino]cyclohexanecarbonyl]amino]-1-(3-fluoro-2-methylsulfonylphenyl)piperidin-3-one] |
| 3.12 nM | C[S+]([O-])c1ccccc1N1CCC(NC(=O)C2(NC(=O)c3cc4ccccc4o3)CCCCC2)C(=O)C1 (centres unmarked) [Example 68] |
| 1.69 nM | O=C(NC1(C(=O)NC2CCN(c3ccc(F)cc3N3CCCC3=O)CC2=O)CCCCC1)c1ccc(OCCN2CCOCC2)cc1 (centres unmarked) [Example 170, 4-[N-[1-[N-(4-(2-morpholinethoxy)benzoyl)amino]cyclohexanecarbonyl]amino]-1-[4-fluoro-2-(pyrrolidin-2-one-1-yl)phenyl]piperidin-3-one] |
| 10.8 nM | O=C(NC1(C(=O)NC2CCN(c3ccc([N+](=O)[O-])cc3)CC2=O)CCCCC1)c1cc2ccccc2o1 (centres unmarked) [Example 16, 4-[N-[1-[N-(benzofuran-2-ylcarbonyl)amino]cyclohexanecarbonyl]amino]-1-(4-nitrophenyl)piperidin-3-one] |
| 4.41 nM | O=C(NC1(C(=O)NC2CCN(c3ccc(F)cc3-n3cccc3)CC2=O)CCCCC1)c1ccco1 (centres unmarked) [Example 99, 4-[N-[1-[N-(furan-2-ylcarbonyl)amino]cyclohexanecarbonyl]amino]-1-[4-fluoro-2-(pyrrol-1-yl)phenyl]piperidin-3-one] |
| 3.87 nM | CCSc1ccccc1N1CCC(NC(=O)C2(NC(=O)c3cc4ccccc4o3)CCCCC2)C(=O)C1 (centres unmarked) [Example 42, 4-[N-[1-[N-(benzofuran-2-ylcarbonyl)amino]cyclohexanecarbonyl]amino]-1-(2-ethylthiophenyl)piperidin-3-one] |
| 1.45 nM | O=Cc1ccccc1N1CCC(NC(=O)C2(NC(=O)c3cc4ccccc4o3)CCCCC2)C(=O)C1 (centres unmarked) [Example 15, 4-[N-[1-[N-(benzofuran-2-ylcarbonyl)amino]cyclohexanecarbonyl]amino]-1-(2-formylphenyl)piperidin-3-one] |
| 0.67 nM | CCOC(=O)Nc1ccccc1N1CCC(NC(=O)C2(NC(=O)c3cc4ccccc4o3)CCCCC2)C(=O)C1 (centres unmarked) [Example 48, 4-[N-[1-[N-(benzofuran-2-ylcarbonyl)amino]cyclohexanecarbonyl]amino]-1-[2-[N-(ethoxycarbonyl)amino]phenyl]piperidin-3-one] |
| 0.52 nM | CS(=O)(=O)c1ccccc1N1CCC(NC(=O)C2(NC(=O)c3cc4cc(OCCN5CCOCC5)ccc4o3)CCCCC2)C(=O)C1 (centres unmarked) [Example 164, 4-[N-[1-[N-(5-(2-morpholinethoxy)benzofuran-2-ylcarbonyl)amino]cyclohexanecarbonyl]amino]-1-(2-methanesulfonylphenyl)piperidin-3-one hydrochloride] |
| 1.93 nM | O=C(NC1(C(=O)NC2CCN(c3ccccc3-c3ccco3)CC2=O)CCCCC1)c1cc2ccccc2o1 (centres unmarked) [Example 34, 4-[N-[1-[N-(benzofuran-2-ylcarbonyl)amino]cyclohexanecarbonyl]amino]-1-[2-(2-furyl)phenyl]piperidin-3-one] |
| 19.9 nM | O=C(NC1(C(=O)NC2CCN(c3ccccc3N3CCOCC3)CC2=O)CCCCC1)c1cc2ccccc2o1 (centres unmarked) [Example 26, 4-[N-[1-[N-(benzofuran-2-ylcarbonyl)amino]cyclohexanecarbonyl]amino]-1-[2-(4-morpholino)phenyl]piperidin-3-one] |
| 1.73 nM | CC(C)[S+]([O-])c1ccccc1N1CCC(NC(=O)C2(NC(=O)c3cc4ccccc4o3)CCCCC2)C(=O)C1 (centres unmarked) [Example 70, 4-[N-[1-[N-(benzofuran-2-ylcarbonyl)amino]cyclohexanecarbonyl]amino]-1-(2-isopropylsulfinylphenyl)piperidin-3-one] |
